# Assay: High fat diet induced obesity (DIO) mouse model
# Format: in vivo, C57CL/6J mice
# Conditions: for NSAH (sum): liver pathology; for Total Body Weight: DIO mice (Table 52); for Total Body Weight / Body Weight: in g (unit assumed)
# Procedure: C57CL/6J mice aged 4-6 weeks (Korea Research Institute of Bioscience & Biotechnology, Ohchang, Korea) were housed in Polycarbonate cages (five mice per cage) in a room with a 12 hr:12 hr light-dark cycle and an ambient temperature of 24° C. All the mice were fed a commercial chow diet for 1 week after arrival in the animal facility. Mice were then divided into normal and obesity groups and fed with normal diet (ND) and high fat diets (HFD) respectively. The HFD group was divided into multiple treatment groups: a high fat diet vehicle group (HFD), an orlistat (purchased as OTC drug Alli®) positive control treatment group (ORI, 40 mg/kg of animal weight, 2 times/day) and optionally a sibutramine positive control treatment group (10 mg/kg, 1 time/day). The HFD contained 340 g of fat/kg of HFD (310 g lard plus 30 g soybean oil; Harlan Laboratories, USA). The HFD was formulated to provide 60% of the total energy generated by the diet from fat by replacing carbohydrate energy with lard and soybean oil, whereas the normal diet (ND) group was fed a diet providing only 18% of the total diet energy from fat(Harlan Laboratories, USA).
# Body weight was measured once each week and feed intake was measured twice per week. At the end of the experimental period, following a 12 hr. fasting period, the animals were anesthetized with ether, and blood was drawn from the abdominal vein. Liver and kidney and adipose tissues (epididymal, retroperitoneal, perirenal adipose tissues) were removed from each animal, rinsed with physiological saline, and weighed. Serum concentrations of glucose, total cholesterol, triglycerides, and LDL-cholesterol were determined using automatic analyzer (INTEGRA 400, Roche, Germany). Statistical significance of test results was measured using the Student's t-test.
# [1] = DIO mice blood biochemistry, SIB 10 mg/kg, ORI 40 mg/kg, Mutamba extract 32 (G1) 1000 mg/kg, mean
# [2] = DIO mice blood biochemistry, SIB 10 mg/kg, ORI 40 mg/kg, Mutamba extract 33-2 G1 1000 mg/kg, mean
# [3] = DIO mice liver pathology score, SIB 10 mg/kg, ORI 40 mg/kg, Mutamba extract 32 (G1) 1000 mg/kg, mean
# [4] = DIO mice, SIB 10 mg/kg, ORI 40 mg/kg, Mutamba extract 32 (G1) 1000 mg/kg, mean
# [5] = DIO mice, SIB 10 mg/kg, ORI 40 mg/kg, Mutamba extract 33-2 G1 1000 mg/kg, mean
# [6] = DIO mice, combination (1:1) 2000 mg/kg twice a day, group mean
# [7] = liver pathology score, mice fed a high fat diet, Mutamba fractions 250 mg/kg oral 2 times per day, mean
# [8] = liver pathology score, mice fed a high fat diet, Mutamba fractions 250 mg/kg oral 2 times per day, mean (table printed twice)
# [9] = mice fed a high fat diet, Mutamba fractions 250 mg/kg oral 2 times per day, mean
# [10] = sibutramine 10 mg/kg, 1 time/day
# [11] = sibutramine 10 mg/kg, 1 time/day, listed as Sibutramine
# [12] = week 1, mice fed a high fat diet, Mutamba fractions 250 mg/kg oral 2 times per day, mean
# [13] = week 2, mice fed a high fat diet, Mutamba fractions 250 mg/kg oral 2 times per day, mean
# [14] = week 3, mice fed a high fat diet, Mutamba fractions 250 mg/kg oral 2 times per day, mean
# [15] = week 4, mice fed a high fat diet, Mutamba fractions 250 mg/kg oral 2 times per day, mean
# [16] = week 5, mice fed a high fat diet, Mutamba fractions 250 mg/kg oral 2 times per day, mean
# [17] = week 6, mice fed a high fat diet, Mutamba fractions 250 mg/kg oral 2 times per day, mean
# [18] = week 7, mice fed a high fat diet, Mutamba fractions 250 mg/kg oral 2 times per day, mean
# [19] = week 8, mice fed a high fat diet, Mutamba fractions 250 mg/kg oral 2 times per day, mean
structure (smiles),measurement,setting,value
"CC(C)CC(N(C)C)C1(c2ccc(Cl)cc2)CCC1 (stereo not shown) [SIB, sibutramine]",ALT,[1],37.00 U/L
same,AST,[1],65.95 U/L
same,HDL-C,[1],68.73 mg/dL
same,LDL-C,[1],6.18 mg/dL
same,T-chol,[1],155.75 mg/dL
same,TG,[1],49.75 mg/dL
same,LDL-C,[2],5.26 mg/dL
same,T-chol,[2],158.60 mg/dL
same,TG,[2],46.60 mg/dL
same,Hepatocellular ballooning (0-2),[3],0.25
same,Lobular Inflammation (0-3),[3],0.50
same,Steatosis (0-3),[3],0.50
same,NASH (sum),"DIO mice liver pathology, sum of scores, SIB 10 mg/kg, ORI 40 mg/kg, Mutamba extract 32 (G1) 1000 mg/kg, mean",1.25
same,Weight Gain 2-week,"DIO mice, 2-week, Compositions 1, 2 1300 mg/kg/day, 3, 9 1700 mg/kg/day, orlistat 40 mg/kg 2 times/day, sibutramine 10 mg/kg 1 time/day",−1.40
same,Average Feed Intake 2-week,"DIO mice, 2-week, doses as in Example 76",2.87
same,Food Efficiency Ratio (FER) 2 weeks,"DIO mice, 2 weeks, Mean, Weight Gain (g/day)/Feed Intake (g/day)",−0.099
same,Weight Gain 7-week,"DIO mice, 7-week, Compositions 1, 2 1300 mg/kg/day, 3, 9 1700 mg/kg/day, orlistat 40 mg/kg 2 times/day, sibutramine 10 mg/kg 1 time/day",6.12
same,Average Feed Intake 7-week,"DIO mice, 7-week, doses as in Example 76",2.67
same,Food Efficiency Ratio (FER) 7 weeks,"DIO mice, 7 weeks, Mean, Weight Gain (g/day)/Feed Intake (g/day)",0.054
same,Food Efficiency Ratio (FER),"DIO mice, FER = body weight gain (g/day)/food intake (g/day), SIB 10 mg/kg, ORI 40 mg/kg, Mutamba extract 32 (G1) 1000 mg/kg, mean",0.008
same,Food Efficiency Ratio (FER),"DIO mice, FER = body weight gain (g/day)/food intake (g/day), SIB 10 mg/kg, ORI 40 mg/kg, Mutamba extract 33-2 G1 1000 mg/kg, mean",0.043
same,Average Body Weight Gain,[4],0.021 g/day
same,Average Food Intake,[4],2.724 g/day
same,Body Weight Gain,[5],0.114 g/day
same,Food Intake,[5],2.624 g/day
same,FER (Food efficiency ratio),"DIO mice, combination (1:1) 2000 mg/kg twice a day, FER = body weight gain/food intake",−0.014
same,Food Intake,[6],3.564 g/day
same,Weight Gain,[6],-0.051 g/day
same,Hepatocellular ballooning (0-2),[7],0.40
same,Lobular Inflammation (0-3),[7],1.60
same,Steatosis (0-3),[7],1.20
same,Hepatocellular ballooning (0-2),[8],0.40
same,Lobular Inflammation (0-3),[8],1.60
same,Steatosis (0-3),[8],1.20
same,NSAH (sum),"sum of scores, mice fed a high fat diet, Mutamba fractions 250 mg/kg oral 2 times per day, mean",3.20
same,NSAH (sum),"sum of scores, mice fed a high fat diet, Mutamba fractions 250 mg/kg oral 2 times per day, mean (table printed twice)",3.20
same,FER (Food efficiency ratio),"mice fed a high fat diet, FER = body weight gain (g/day)/food intake (g/day), Mutamba fractions 250 mg/kg oral 2 times per day, mean",0.043
same,Body Weight Gain,[9],0.114 g/day
same,Food Intake,[9],2.624 g/day
same,blood biochemistry parameters vs HFD group,[10],statistically significant decrease in LDL-cholesterol
same,body weight gain vs HFD group,[10],statistically significant decreases in body weight gain across all weeks of the study
same,liver pathology (NASH score) vs HFD group,[10],"statistically significant decreases in Steatosis, Lobular inflammation, Hepatocellular ballooning and NASH score"
same,total body weight vs HFD group,[10],"statistically significant decreases in total body weight from week 1, 2, 3 and 7"
same,"weight gain per day, food intake per day, food efficiency ratio (FER) vs HFD group",[10],average body weight gain per day and food efficiency ratio (FER) endpoints were significantly lowered
same,body weight gain vs HFD group,[11],did not
same,"weight gain per day, food intake per day, food efficiency ratio (FER) vs HFD group",[11],statistically significant reduction of average food intake after 7 weeks of treatment
same,"weight gain per day, food intake per day, food efficiency ratio (FER) vs HFD group","sibutramine 10 mg/kg, 1 time/day, listed as sibutramine",not statistically significant
same,Total Body Weight,"week 0, SIB 10 mg/kg",39.70
same,Body Weight,"week 0, mice fed a high fat diet, Mutamba fractions 250 mg/kg oral 2 times per day, mean",38.41
same,Body Weight Gain,"week 1, DIO mice, SIB 10 mg/kg, ORI 40 mg/kg, Mutamba extract 32 (G1) 1000 mg/kg/day oral, mean",−5.46
same,Body Weight Gain,"week 1, DIO mice, SIB 10 mg/kg, ORI 40 mg/kg, Mutamba extract 33-2 G1 1000 mg/kg, mean",−2.72
same,Weight Gain,"week 1, DIO mice, combination (1:1) 2000 mg/kg twice a day, group mean",−3.63
same,Weight Gain,"week 1, DIO mice, combination (10:1) 1100 mg/kg twice a day, group mean",−3.63
same,Total Body Weight,"week 1, SIB 10 mg/kg",34.24
same,Body Weight Gain,[12],−2.72
same,Body Weight,[12],35.69
same,Body Weight Gain,"week 2, DIO mice, SIB 10 mg/kg, ORI 40 mg/kg, Mutamba extract 32 (G1) 1000 mg/kg/day oral, mean",−4.84
same,Body Weight Gain,"week 2, DIO mice, SIB 10 mg/kg, ORI 40 mg/kg, Mutamba extract 33-2 G1 1000 mg/kg, mean",−2.39
same,Weight Gain,"week 2, DIO mice, combination (1:1) 2000 mg/kg twice a day, group mean",−5.37
same,Weight Gain,"week 2, DIO mice, combination (10:1) 1100 mg/kg twice a day, group mean",−5.37
same,Total Body Weight,"week 2, SIB 10 mg/kg",33.96
same,Body Weight Gain,[13],−2.39
same,Body Weight,[13],36.03
same,Body Weight Gain,"week 3, DIO mice, SIB 10 mg/kg, ORI 40 mg/kg, Mutamba extract 32 (G1) 1000 mg/kg/day oral, mean",−2.75
same,Body Weight Gain,"week 3, DIO mice, SIB 10 mg/kg, ORI 40 mg/kg, Mutamba extract 33-2 G1 1000 mg/kg, mean",−0.39
same,Weight Gain,"week 3, DIO mice, combination (1:1) 2000 mg/kg twice a day, group mean",−4.69
same,Weight Gain,"week 3, DIO mice, combination (10:1) 1100 mg/kg twice a day, group mean",−4.69
same,Total Body Weight,"week 3, SIB 10 mg/kg",36.05
same,Body Weight Gain,[14],−0.39
same,Body Weight,[14],38.02
same,Body Weight Gain,"week 4, DIO mice, SIB 10 mg/kg, ORI 40 mg/kg, Mutamba extract 32 (G1) 1000 mg/kg/day oral, mean",−2.17
same,Body Weight Gain,"week 4, DIO mice, SIB 10 mg/kg, ORI 40 mg/kg, Mutamba extract 33-2 G1 1000 mg/kg, mean",1.47
same,Weight Gain,"week 4, DIO mice, combination (1:1) 2000 mg/kg twice a day, group mean",−4.82
same,Weight Gain,"week 4, DIO mice, combination (10:1) 1100 mg/kg twice a day, group mean",−4.82
same,Total Body Weight,"week 4, SIB 10 mg/kg",36.64
same,Body Weight Gain,[15],1.47
same,Body Weight,[15],39.89
same,Body Weight Gain,"week 5, DIO mice, SIB 10 mg/kg, ORI 40 mg/kg, Mutamba extract 32 (G1) 1000 mg/kg/day oral, mean",−1.38
same,Body Weight Gain,"week 5, DIO mice, SIB 10 mg/kg, ORI 40 mg/kg, Mutamba extract 33-2 G1 1000 mg/kg, mean",2.54
same,Weight Gain,"week 5, DIO mice, combination (1:1) 2000 mg/kg twice a day, group mean",−4.25
same,Weight Gain,"week 5, DIO mice, combination (10:1) 1100 mg/kg twice a day, group mean",−4.25
same,Total Body Weight,"week 5, SIB 10 mg/kg",37.42
same,Body Weight Gain,[16],2.54
same,Body Weight,[16],40.95
same,Body Weight Gain,"week 6, DIO mice, SIB 10 mg/kg, ORI 40 mg/kg, Mutamba extract 32 (G1) 1000 mg/kg/day oral, mean",−0.27
same,Body Weight Gain,"week 6, DIO mice, SIB 10 mg/kg, ORI 40 mg/kg, Mutamba extract 33-2 G1 1000 mg/kg, mean",3.99
same,Weight Gain,"week 6, DIO mice, combination (1:1) 2000 mg/kg twice a day, group mean",−3.90
same,Weight Gain,"week 6, DIO mice, combination (10:1) 1100 mg/kg twice a day, group mean",−3.90
same,Total Body Weight,"week 6, SIB 10 mg/kg",38.54
same,Body Weight Gain,[17],3.99
same,Body Weight,[17],42.40
same,Body Weight Gain,"week 7, DIO mice, SIB 10 mg/kg, ORI 40 mg/kg, Mutamba extract 32 (G1) 1000 mg/kg/day oral, mean",−0.06
same,Body Weight Gain,"week 7, DIO mice, SIB 10 mg/kg, ORI 40 mg/kg, Mutamba extract 33-2 G1 1000 mg/kg, mean",5.15
same,Weight Gain,"week 7, DIO mice, combination (1:1) 2000 mg/kg twice a day, group mean",−2.27
same,Weight Gain,"week 7, DIO mice, combination (10:1) 1100 mg/kg twice a day, group mean",−2.27
same,Total Body Weight,"week 7, SIB 10 mg/kg",38.74
same,Body Weight Gain,[18],5.15
same,Body Weight,[18],43.57
same,Body Weight Gain,"week 8, DIO mice, SIB 10 mg/kg, ORI 40 mg/kg, Mutamba extract 32 (G1) 1000 mg/kg/day oral, mean",1.15
same,Body Weight Gain,"week 8, DIO mice, SIB 10 mg/kg, ORI 40 mg/kg, Mutamba extract 33-2 G1 1000 mg/kg, mean",6.27
same,Total Body Weight,"week 8, SIB 10 mg/kg",39.95
same,Body Weight Gain,[19],6.27
same,Body Weight,[19],44.69

# Reference: patent US20240024403A1, “Compositions and Methods for Managing Weight” (Unigen, Inc., priority 2012, published 2024)
